Experiments:
Format in all cases: cell-based
[1] = tested on: PHA-activated human mononuclear cells (MNC); assay: Proliferation of PHA-activated human MNC (WST-1 Cell-Proliferation Assay); conditions: 72 h
Method: FIG. 7: The MNC were incubated for the time of 72 hours without (control), with mitogenic lectin phytohemagglutinine (PHA) or with PHA plus the inhibitors indicated. Subsequently, there was carried out a determination of the number of metabolically active cells by using the commercially available WST-1 Cell-Proliferation Assay (Takara Inc.) in accordance with the proposals of the manufacturer.
(§1) FIG. 10: The mononuclear cells (MNC) were incubated for a time of 72 hours in the presence of the above-indicated inhibitors singly or in combination. Subsequently, there was carried out a determination of the number of metabolically active cells by using the commercially available WST-1 Cell-Proliferation Assay (Takara Inc.) in accordance with the proposals of the manufacturer.

[2] = tested on: human peripheric mononuclear cells (MNC); assay: DNA synthesis of human peripheric mononuclear cells (3[H]-thymidine incorporation); conditions: 72 h incubation
Method: (§2) The MNC were incubated for 72 h in the presence of said inhibitors, and the DNA synthesis was determined subsequently by a measurement of the ^3[H]-thymidine incorporation, as described by Reinhold et al. (Reinhold D. et al.: Inhibitors of dipeptidyl peptidase IV induce secretion of transforming growth factor β1 in PWM-stimulated PBMNC and T cells; Immunology 1997, 91: 354-360).
(§3) FIG. 2: Synergistic and dose-dependent effect of inhibitors of DP IV (I49) and of APN (actinonine) on the DNA synthesis of human mononuclear cells (MNC). Human MNC were incubated for three days with the above-indicated concentrations of the inhibitors. Subsequently, ^3[H]-methyl thymidine was added to the culture medium, and after further 6 hours, the ^3[H]-thymidine amount incorporated into the DNA was measured.
as §3, with “4: Enhanced” for “2: Synergistic”, “prolyl oligopeptidase (Boc-Ala-Thia)” for “APN (actinonine)”
as §3, with “6:” for “2:”, “angiotensin-converting enzyme (captopril)” for “APN (actinonine)”

[3] = tested on: human peripheric T lymphocytes; assay: DNA synthesis of human T lymphocytes (3[H]-thymidine incorporation); conditions: 72 h incubation
Method: as §2, with “The T cells” for “The MNC”
as §3, with “1:” for “2:”, “aminopeptidase N” for “APN”, “T lymphocytes. Human peripheric T” for “mononuclear”, “cells” for “cells (MNC). Human MNC”
as §3, with “3:” for “2:”, “prolyl oligopeptidase (Boc-Ala-Thia)” for “APN (actinonine)”, “peripheric T lymphocytes. Human T” for “mononuclear”, “cells” for “cells (MNC). Human MNC”
FIG. 5: Synergistic and dose-dependent effect of inhibitors of DP IV (I49) and of angiotensin-converting enzyme (captopril) on the DNA synthesis of human peripheric T lymphocytes.
Human T cells were incubated for three days with the above-indicated concentrations of the inhibitors. Subsequently, ^3[H]-methyl thymidine was added to the culture medium, and after further 6 hours, the ^3[H]-thymidine amount incorporated into the DNA was measured.

KARPAS-299 cells = assay: Proliferation of human T cell line KARPAS-299 (WST-1 Cell-Proliferation Assay); conditions: single and simultaneous administration of I49 and APN inhibitors actinonine and probestine; 72 h; Example 8, FIG. 8
Method: as §1, with “8:” for “10:”, “KARPAS-299-cells” for “mononuclear cells (MNC)”, “time period” for “time”, “without (control) and with” for “in the presence of”

[4] = tested on: human HaCaT keratinocytes; assay: DNA synthesis of human HaCaT keratinocytes (3[H]-thymidine incorporation); conditions: simultaneous administration of DP IV inhibitor I49 and APN inhibitor actinonine; 48 h; Example 13, FIG. 14
Method: HaCaT cells were incubated for 48 hours in presence of the above-mentioned inhibitors, and the DNA synthesis was subsequently determined by a measurement of ^3[H]-thymidine-incorporation, as described by Reinhold et al. (Reinhold D et al.: Inhibitors of dipeptidyl peptidase IV induce secretion of transforming growth factor β1 in PWM-stimulated PBMNC and T cells. Immunology 1997; 91; 354-360).
FIG. 14: Synergistic and dose-dependant effect of inhibitors of DP IV (I49) and of aminopeptidase N (actinonine) on the DNA synthesis of human HaCaT keratinocytes. The cells were incubated for 48 hours with the above-indicated concentrations of inhibitors. Subsequently, ^3[H]-methyl thymidine was added to the culture medium, and after further 6 hours, the amount of ^3[H]-thymidine incorporated into the DNA was measured.

[5] = tested on: activated human peripheric T cells; assay: Proliferation of activated human peripheric T cells (WST-1 Cell-Proliferation Assay); conditions: single and simultaneous administration of I49 and APN inhibitors actinonine and probestine; activation by phytohemagglutinine and phorbol-12-myristate-13-acetate; 72 h; Example 9, FIG. 9
Method: as §1, with “9:” for “10:”, “T” for “mononuclear”, “with the exception of the untreated control, were activated by an addition of phytohemagglutinine and phorbol-12-myristate-13-acetate to the culture medium and” for “(MNC)”, “above” for “above-indicated”

[6] = tested on: pokeweed-mitogene stimulated human MNC of the peripheral blood; assay: DNA synthesis of pokeweed-mitogene stimulated human MNC (3[H]-thymidine incorporation); conditions: simultaneous administration of DP IV inhibitor I49 and APN inhibitor bestatine; PWM 2 μg/ml; 72 h; Example 11, FIG. 11
Method: The MNC were incubated for 72 hours in the presence of pokeweed-mitogene and of said inhibitors, and the DNA synthesis was determined subsequently by a measurement of the ^3[H]-thymidine-incorporation, is described by Reinhold et al. (Reinhold D et al.: Inhibitors of dipeptidyl peptidase IV induce secretion of transforming growth factor β1 in PWM-stimulated PBMNC and T cells. Immunology 1997; 91; 354-360).
FIG. 11: Synergistic and dose-dependent effect of inhibitors of DP IV (I49) and of aminopeptidase N (bestatine) on the DNA synthesis of human PWM-stimulated MNC. Human peripheric MNC were incubated for three days with PWM (2 μg/ml) and the above-indicated concentration of inhibitors. Subsequently, ^3[H]-methyl thymidine was added to the culture medium, and the amount of ^3[H]-thymidine incorporated into the DNA was measured after further 6 hours.

[7] = tested on: IL-4 production by pokeweed-mitogene stimulated human mononuclear cells (MNC); assay: IL-4 production by pokeweed-mitogene stimulated human MNC (IL-4 ELISA); conditions: simultaneous administration of DP IV inhibitor I49 and APN inhibitor bestatine; PWM 2 μg/ml; 48 h; culture supernatants; Example 12, FIG. 12
Method: The MNC were incubated for 48 hours in the presence of pokeweed-mitogene and of said inhibitors, and the concentration of IL-4 was subsequently determined in the respective culture supernatants by means of commercially available IL-4 analysis kids (ELISA) as described by Reinhold et al. (Reinhold D et al.: Inhibitors of dipeptidyl peptidase IV induce secretion of transforming growth factor β1 in PWM-stimulated PBMNC and T cells. Immunology 1997; 91; 354-360).
FIG. 12: Synergistic and dose-dependent effect of inhibitors of DP IV (I49) and of aminopeptidase N (bestatine) on the IL-4-production by human, PWM-stimulated MNC. Human peripheric MNC were incubated for 48 hours with PWM (2 μg/ml) and with the above-indicated concentrations of the inhibitors. Subsequently, the concentration of IL-4 in the respective culture supernatants were measured by means of IL-4-ELISA.

[8] = single and simultaneous administration of I49 and actinonine, PHA, Example 7, FIG. 7
[9] = simultaneous administration of DP IV inhibitor I49 and APN inhibitor actinonine, Example 2, FIG. 2
[10] = simultaneous administration of DP IV inhibitor I49 and APN inhibitor actinonine, Example 1, FIG. 1
[11] = single and simultaneous administration of I49 and X-Pro-aminopeptidase (APP) inhibitor apstatine, Example 10, FIG. 10
[12] = simultaneous administration of DP IV inhibitor I49 and prolyl oligopeptidase inhibitor Boc-Ala thiazolidide, Example 4, FIG. 4
[13] = simultaneous administration of DP IV inhibitor I49 and prolyl oligopeptidase inhibitor Boc-Ala thiazolidide, Example 3, FIG. 3
[14] = simultaneous administration of DP IV inhibitor I49 and ACE inhibitor captopril, Example 6, FIG. 6
[15] = simultaneous administration of DP IV inhibitor I49 and ACE inhibitor captopril, Example 5, FIG. 5

CCCCC[C@H](CC(=O)NO)C(=O)N[C@H](C(=O)N1CCC[C@H]1CO)C(C)C [Actinonine]
inhibition of proliferation (number of metabolically active cells) [1, 8]: Inhibition of the Proliferation | inhibition of DNA synthesis [2, 9]: inhibited, in a more than additive to superadditive manner | inhibition of DNA synthesis [3, 10]: inhibited, in a more than additive to superadditive manner | inhibition of proliferation (number of metabolically active cells) (KARPAS-299 cells): Inhibition of the Proliferation | inhibition of DNA synthesis [4]: inhibited, in a more than additive and, at lower concentrations, also in a superadditive manner | inhibition of proliferation (number of metabolically active cells) [5]: Inhibition of the Proliferation

C[C@H](NC(=O)[C@@H]1CCCN1C(=O)[C@@H]1CCCN1C(=O)[C@@H](O)[C@H](N)Cc1ccccc1)C(N)=O [Apstatine]
inhibition of proliferation (number of metabolically active cells) [1, 11]: Inhibition of the Proliferation

CC(C)C[C@H](NC(=O)[C@@H](O)[C@H](N)Cc1ccccc1)C(=O)O [Bestatine]
inhibition of DNA synthesis [6]: inhibited, in a more than additive manner | inhibition of IL-4 production [7]: inhibited, in a more than additive to superadditive manner

CC(NC(=O)OC(C)(C)C)C(=O)N1CCSC1 (stereo not shown) [Boc-Ala thiazolidide]
inhibition of DNA synthesis [2, 12]: inhibited, in an increased manner | inhibition of DNA synthesis [3, 13]: inhibited, in a more than additive to superadditive manner

C[C@H](CS)C(=O)N1CCC[C@H]1C(=O)O [Captopril]
inhibition of DNA synthesis [2, 14]: inhibited, in a more than additive to superadditive manner | inhibition of DNA synthesis [3, 15]: inhibited, in a more than additive to superadditive manner

N[C@@H](CCCCNC(=O)OCc1ccc([N+](=O)[O-])cc1)C(=O)N1CCSC1 [I49, Lys[Z(NO2)]-thiazolidide]
inhibition of proliferation (number of metabolically active cells) [1, 11]: Inhibition of the Proliferation | inhibition of proliferation (number of metabolically active cells) [1, 8]: Inhibition of the Proliferation | inhibition of DNA synthesis [2, 14]: inhibited, in a more than additive to superadditive manner | inhibition of DNA synthesis [2, 9]: inhibited, in a more than additive to superadditive manner | inhibition of DNA synthesis [2, 12]: inhibited, in an increased manner | inhibition of DNA synthesis [3, 15]: inhibited, in a more than additive to superadditive manner | inhibition of DNA synthesis [3, 10]: inhibited, in a more than additive to superadditive manner | inhibition of DNA synthesis [3, 13]: inhibited, in a more than additive to superadditive manner | inhibition of DNA synthesis [6]: inhibited, in a more than additive manner | inhibition of proliferation (number of metabolically active cells) (KARPAS-299 cells): Inhibition of the Proliferation | inhibition of DNA synthesis [4]: inhibited, in a more than additive and, at lower concentrations, also in a superadditive manner | inhibition of proliferation (number of metabolically active cells) [5]: Inhibition of the Proliferation | inhibition of IL-4 production [7]: inhibited, in a more than additive to superadditive manner

Probestine
inhibition of proliferation (number of metabolically active cells) (KARPAS-299 cells): Inhibition of the Proliferation | inhibition of proliferation (number of metabolically active cells) [5]: Inhibition of the Proliferation

— patent US20040132639A1, “Combined use of enzyme inhibitors and pharmaceutical preparations thereof for the treatment and a prophylaxis of arteriosclerosis, for the treatment and prevention of allergic reactions of type I according to the gell and coombs classification and for the treatment and prevention of dermatological …” (priority 2001, published 2004)
